# Measured values taken from US20260184706A1, “PHENYLSULFONAMIDE DERIVATIVES, PREPARATION METHOD THEREFOR, AND PHARMACEUTICAL COMPOSITION FOR PREVENTION OR TREATMENT OF CANCER CONTAINING SAME AS ACTIVE INGREDIENT” (Korea Research Institute of Chemical Technology, priority 2022, published 2026).
# Columns and labels:
# Format in all cases: biochemical
# [1] = target: T1, recombinant human PERK protein (Homo sapiens, UniProt Q9NZJ5); test: PKR-like endoplasmic reticulum kinase (PERK) inhibitory capacity, 33P-ATP filter assay; conditions: 15 uM [gamma-33P-ATP], 40 minutes, room temperature
# T1 sequence (Q9NZJ5 30-1116): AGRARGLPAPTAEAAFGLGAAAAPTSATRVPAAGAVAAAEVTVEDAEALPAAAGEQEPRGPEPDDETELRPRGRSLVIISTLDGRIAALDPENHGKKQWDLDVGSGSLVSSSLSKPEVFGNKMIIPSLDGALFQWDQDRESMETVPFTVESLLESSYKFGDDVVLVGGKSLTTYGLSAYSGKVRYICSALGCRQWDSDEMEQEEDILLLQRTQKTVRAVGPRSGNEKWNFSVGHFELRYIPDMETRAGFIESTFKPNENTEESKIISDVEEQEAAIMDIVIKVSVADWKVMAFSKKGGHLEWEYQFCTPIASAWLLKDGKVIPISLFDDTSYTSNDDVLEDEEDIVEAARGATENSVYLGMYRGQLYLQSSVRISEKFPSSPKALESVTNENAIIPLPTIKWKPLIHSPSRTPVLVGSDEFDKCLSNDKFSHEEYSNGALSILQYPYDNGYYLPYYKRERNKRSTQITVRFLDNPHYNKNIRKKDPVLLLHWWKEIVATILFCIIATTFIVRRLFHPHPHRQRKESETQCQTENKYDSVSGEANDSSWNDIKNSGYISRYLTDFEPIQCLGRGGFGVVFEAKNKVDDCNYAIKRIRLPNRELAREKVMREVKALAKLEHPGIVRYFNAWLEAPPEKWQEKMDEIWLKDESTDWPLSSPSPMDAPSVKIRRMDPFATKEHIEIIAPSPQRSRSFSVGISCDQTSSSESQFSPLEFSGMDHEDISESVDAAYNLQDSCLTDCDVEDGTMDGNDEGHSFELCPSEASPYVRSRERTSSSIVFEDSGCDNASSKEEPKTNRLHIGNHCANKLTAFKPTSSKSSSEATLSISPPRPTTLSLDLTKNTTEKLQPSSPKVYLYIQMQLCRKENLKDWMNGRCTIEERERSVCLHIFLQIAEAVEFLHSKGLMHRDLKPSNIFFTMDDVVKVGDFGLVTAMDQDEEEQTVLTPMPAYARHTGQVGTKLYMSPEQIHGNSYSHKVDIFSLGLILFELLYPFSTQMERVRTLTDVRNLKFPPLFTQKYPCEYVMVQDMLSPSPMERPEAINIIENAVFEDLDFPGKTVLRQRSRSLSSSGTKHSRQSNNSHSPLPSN
# [2] = target: recombinant human GCN2 protein (Homo sapiens, UniProt Q9P2K8); test: General control nonderepressible 2 (GCN2) inhibitory capacity, 33P-ATP filter assay; conditions: recombinant human GCN2, 70 uM [gamma-33P-ATP], 40 minutes, room temperature
# [3] = target: recombinant human PKR protein (Homo sapiens, UniProt P19525); test: Protein kinase R (PKR) inhibitory capacity, 33P-ATP filter assay; conditions: 15 uM [gamma-33P-ATP], 40 minutes, room temperature
# Procedure: <Experimental Example 4> Evaluation of Protein Kinase R (PKR) Inhibitory Capacity
# A recombinant human PKR protein was mixed with the compound in a reaction solution (8 mM MOPS pH 7.0, 0.2 mM EDTA, 20 uM RSRSRSRSRSRSRSR, 10 mM Magnesium acetate, 15 uM [gamma-33P-ATP]) and reacted at room temperature for 40 minutes. Then, the reaction was terminated by adding phosphoric acid (0.5%) to the reaction mixture, and 10 ul of the reaction solution was dropped onto a P30 filter. The filter was washed four times in a 0.425% phosphoric acid solution for 4 minutes, then washed once more in methanol, dried, and the PKR activity was measured by scintillation counting. […] The compound was diluted by 1/3 from the highest concentration of 1 uM and treated with a total of 9 concentrations to evaluate the degree of inhibition.
# recombinant human PKR protein, sequence (P19525 whole entry): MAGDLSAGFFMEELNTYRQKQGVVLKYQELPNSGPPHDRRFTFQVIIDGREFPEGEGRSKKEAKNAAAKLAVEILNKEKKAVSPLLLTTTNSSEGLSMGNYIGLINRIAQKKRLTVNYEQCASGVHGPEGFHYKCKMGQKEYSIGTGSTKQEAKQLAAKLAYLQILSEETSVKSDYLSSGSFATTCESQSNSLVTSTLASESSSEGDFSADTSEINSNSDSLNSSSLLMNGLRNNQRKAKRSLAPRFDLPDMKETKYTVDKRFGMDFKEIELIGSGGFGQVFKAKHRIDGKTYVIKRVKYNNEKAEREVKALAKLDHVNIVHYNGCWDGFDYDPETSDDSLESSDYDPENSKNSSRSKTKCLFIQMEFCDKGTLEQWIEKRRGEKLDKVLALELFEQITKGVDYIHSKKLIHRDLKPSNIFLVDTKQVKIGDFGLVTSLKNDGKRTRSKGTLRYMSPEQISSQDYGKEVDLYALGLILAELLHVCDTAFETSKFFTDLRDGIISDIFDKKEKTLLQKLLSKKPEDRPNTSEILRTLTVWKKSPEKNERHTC
# recombinant human GCN2 protein, sequence (Q9P2K8 whole entry): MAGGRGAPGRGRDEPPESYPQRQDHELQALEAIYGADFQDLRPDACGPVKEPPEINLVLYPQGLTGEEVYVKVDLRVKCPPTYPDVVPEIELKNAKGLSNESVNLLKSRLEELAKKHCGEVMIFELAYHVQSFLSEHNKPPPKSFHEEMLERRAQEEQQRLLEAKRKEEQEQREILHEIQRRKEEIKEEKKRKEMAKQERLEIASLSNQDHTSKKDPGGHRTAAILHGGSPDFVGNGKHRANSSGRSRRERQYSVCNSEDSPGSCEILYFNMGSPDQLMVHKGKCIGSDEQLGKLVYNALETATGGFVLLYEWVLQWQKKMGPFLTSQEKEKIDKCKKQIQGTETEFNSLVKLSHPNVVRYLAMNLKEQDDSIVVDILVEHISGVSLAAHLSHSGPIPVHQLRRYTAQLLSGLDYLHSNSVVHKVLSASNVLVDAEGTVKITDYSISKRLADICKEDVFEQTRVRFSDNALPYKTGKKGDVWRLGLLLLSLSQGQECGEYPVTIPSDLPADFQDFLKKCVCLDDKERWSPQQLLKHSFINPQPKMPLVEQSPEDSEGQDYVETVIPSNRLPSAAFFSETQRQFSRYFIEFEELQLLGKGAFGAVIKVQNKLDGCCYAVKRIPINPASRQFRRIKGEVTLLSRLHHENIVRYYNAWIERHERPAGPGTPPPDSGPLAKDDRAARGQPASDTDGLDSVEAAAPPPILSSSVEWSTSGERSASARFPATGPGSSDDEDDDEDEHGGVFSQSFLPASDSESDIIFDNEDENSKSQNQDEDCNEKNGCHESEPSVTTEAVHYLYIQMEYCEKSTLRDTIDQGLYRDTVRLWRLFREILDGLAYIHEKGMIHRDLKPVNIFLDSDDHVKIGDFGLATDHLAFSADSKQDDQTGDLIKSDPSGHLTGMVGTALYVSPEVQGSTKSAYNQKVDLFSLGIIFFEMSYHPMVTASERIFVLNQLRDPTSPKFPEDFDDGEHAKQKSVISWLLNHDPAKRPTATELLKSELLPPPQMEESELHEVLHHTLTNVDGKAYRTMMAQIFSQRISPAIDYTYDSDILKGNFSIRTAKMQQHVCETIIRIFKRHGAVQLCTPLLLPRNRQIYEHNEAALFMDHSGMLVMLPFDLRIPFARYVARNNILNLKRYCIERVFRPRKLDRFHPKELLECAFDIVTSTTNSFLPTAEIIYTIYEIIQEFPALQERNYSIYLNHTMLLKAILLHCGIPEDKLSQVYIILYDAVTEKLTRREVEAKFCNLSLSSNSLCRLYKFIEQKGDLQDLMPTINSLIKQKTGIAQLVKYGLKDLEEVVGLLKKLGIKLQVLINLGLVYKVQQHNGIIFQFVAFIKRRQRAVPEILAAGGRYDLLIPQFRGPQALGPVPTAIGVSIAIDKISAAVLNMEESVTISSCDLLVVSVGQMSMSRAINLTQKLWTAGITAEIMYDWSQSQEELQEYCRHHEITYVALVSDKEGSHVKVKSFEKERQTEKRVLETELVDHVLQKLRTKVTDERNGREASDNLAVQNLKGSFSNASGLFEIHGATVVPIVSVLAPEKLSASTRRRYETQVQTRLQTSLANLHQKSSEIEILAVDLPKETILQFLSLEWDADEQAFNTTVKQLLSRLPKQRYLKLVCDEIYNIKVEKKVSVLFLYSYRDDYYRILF
SMILES,IC50 [1] [nM],IC50 [2] [nM],IC50 [3] [nM]
"CNc1ncc2c(=O)n(-c3c(F)ccc(NS(=O)(=O)c4cc(Cl)cnc4OC)c3F)ccc2n1 [Example 32, 5-chloro-N-(2,4-difluoro-3-(2-(methylamino)-5-oxopirido[4,3-d]pyrimidin-6(5H)-yl)phenyl)-2-methoxypyridine-3-sulfonamide]",< 100,< 100,> 1000
"COc1ncc(Cl)cc1S(=O)(=O)Nc1ccc(F)c(-n2c(=O)c3cnc(N)nc3n(C)c2=O)c1F [Example 44, N-(3-(7-amino-1-methyl-2,4-dioxo-1,4-dihydropyrimido[4,5-d]pyrimidin-3(2H)-yl)-2,4-difluorophenyl)-5-chloro-2-methoxypyridine-3-sulfonamide]",< 100,100 to 300,300 to 1000
"COc1ncc(Br)cc1S(=O)(=O)Nc1ccc(F)c(-n2c(=O)c3cnc(N)nc3n(C)c2=O)c1F [Example 46, N-(3-(7-amino-1-methyl-2,4-dioxo-1,4-dihydropyrimido[4,5-d]pyrimidin-3(2H)-yl)-2,4-difluorophenyl)-5-bromo-2-methoxypyridine-3-sulfonamide]",< 100,< 100,300 to 1000

# The next lines start with the values.
IC50 [1] [nM],IC50 [2] [nM],IC50 [3] [nM],SMILES
< 100,< 100,300 to 1000,"COc1ncc(Cl)cc1S(=O)(=O)Nc1ccc(F)c(-n2cc(C(F)F)c3nc(N)ncc3c2=O)c1F [Example 22, N-(3-(2-amino-8-(difluoromethyl)-5-oxopirido[4,3-d]pyrimidin-6(5H)-yl)-2,4-difluorophenyl)-5-chloro-2-methoxypyridine-3-sulfonamide]"
< 100,< 100,> 1000,"Nc1ncc2c(=O)n(-c3c(F)ccc(NS(=O)(=O)c4cc(Cl)cnc4Cl)c3F)ccc2n1 [Example 27, N-(3-(2-amino-5-oxopirido[4,3-d]pyrimidin-6(5H)-yl)-2,4-difluorophenyl)-2,5-dichloropyridine-3-sulfonamide]"
< 100,< 100,100 to 300,"Nc1ncc2c(=O)n(-c3c(F)ccc(NS(=O)(=O)c4cccc5ccccc45)c3F)ccc2n1 [Example 29, N-(3-(2-amino-5-oxopirido[4,3-d]pyrimidin-6(5H)-yl)-2,4-difluorophenyl)naphthalene-1-sulfonamide]"
